Experimental data reported in PMC10819521 (Pharmaceutics, 2024).

Assays:
[1] = Oxygen radical absorbance capacity assay (ORAC-FL); details: ORAC-FL method; mean ± SEM
Description: Oxygen radical absorbance capacity assay. The evaluation of the antioxidant activity of compounds 4a–l was carried out using the previously established ORAC-FL method, and detailed information is provided in the supporting information.
Antioxidant assay. The antioxidant assessment was conducted by evaluating the compounds 4a–l through the determination of oxygen radical absorbance capacity (ORAC) using the ORAC-Fluorescein (ORAC-FL) method […]
Oxygen radical absorbance capacity assay.
ORAC-FL method, using fluorescein as a fluorescent probe. Shortly, fluorescein and the antioxidants
2,2'-Azobis(amidinopropane)
(emission wavelength) every minute for 1 hour. […]

Nrf2-ARE = assay: Nrf2 transcriptional activation, cell-based luciferase assay; details: CD = concentration required to double the specific activity of the luciferase reporter; 24 h; read-out: Nrf2 Induction Potencies CD
Description: Nrf2 transcriptional activation potencies. The assessment of the Nrf2 transcriptional activation potencies of compounds 4a–l was carried out using the previously described method, and detailed information is provided in the supporting information.
Nrf2 transcriptional activation potencies of compounds 4a–l. […] AREc32 cells were exposed to escalating concentrations of each compound (1, 5, 10, 25, 50, 100, 125, and 150 μM) for 24 h to reach the cytotoxic threshold, followed by measurements of luciferase activity. Melatonin was used as a positive control.
4e H Cl H n.i. 76 n.i. […]
Nrf2 transcriptional activation potencies. The stable NRF2/ARE luciferase reporter HEK293 cell line
(Promega) according to the manufacturer's instructions. To assess cellular viability, the stable

[2] = biological target: T1, Human recombinant cathepsin K (Homo sapiens, UniProt P43235); assay: Cathepsin K assay (substrate Z-Leu-Arg-AMC); assay type: biochemical; details: 50 µM inhibitor, 60 min; 100% = no inhibitor; n.i. = residual activity ≥ 95%; read-out: Percentage residual activity of human cathepsin K
T1 construct: purchased Enzo Life Sciences
T1 sequence (P43235 115-329): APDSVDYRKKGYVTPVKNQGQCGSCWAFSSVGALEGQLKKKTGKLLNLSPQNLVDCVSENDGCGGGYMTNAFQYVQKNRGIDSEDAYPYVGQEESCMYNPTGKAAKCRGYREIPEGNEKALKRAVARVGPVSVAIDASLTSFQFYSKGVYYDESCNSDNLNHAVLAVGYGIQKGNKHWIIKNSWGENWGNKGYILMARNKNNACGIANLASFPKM
Description: (§1) Cathepsin assays. Assays with human cathepsins B, S, L, and K were carried out as described previously. Stock solutions of substrates and inhibitors were prepared in DMSO. The final DMSO concentration was 2%. All test compounds were investigated in duplicate at a concentration of 50 µM to determine residual activities based on endpoints of substrate consumption after 60 min. Ki values were obtained in duplicate measurements with six different inhibitor concentrations, and 60-min-progress curves were analyzed by linear regression. IC50 values were obtained by non-linear regression using the equation vi = v0/(1 + ([I]/IC50), where vi is the product formation rate at different inhibitor concentrations, v0 is the uninhibited product formation rate, [I] is the inhibitor concentration, and IC50 is the half-maximal inhibitory concentration. IC50 values are transformed to Ki values using the Cheng-Prusoff equation.
Human recombinant cathepsin K (Enzo Life Sciences) was assayed fluorometrically (FLUOstar Optima plate reader, BMG Labtech) with an emission wavelength of 360 nm and an absorption wavelength of 460 nm. The assay buffer was 100 mM sodium citrate pH 5.0, 100 mM NaCl, 1 mM EDTA, 0.01% CHAPS. For activation, an enzyme stock solution was diluted with assay buffer containing 5 mM DTT and incubated for 30 min at 37 °C. The final concentration of the chromogenic substrate Z-Leu-Arg-AMC was 40 µM (13.33 × Km).
(§2) Cathepsins inhibition. Compounds 4a–l were then evaluated for their ability to inhibit Cat S. Besides Cat S, the set of assays included three related human cathepsins, B, L, and K, all members of the class of lysosomal cysteine proteases (see Table S1 in the Supporting Information). Following reported procedures, [39, 40, 41] percentage or residual activities were determined using chromogenic or fluorogenic peptide substrates, with endpoints measured after 60 min of substrate consumption. To determine Ki values, progress curves were followed over 60 min and analyzed by linear regression. Ki values were then obtained by non-linear regression.

[3] = biological target: T2, Human isolated cathepsin B (Homo sapiens, UniProt P07858); assay: Cathepsin B assay (chromogenic substrate Z-Arg-Arg-pNA); assay type: biochemical; details: 50 µM inhibitor, 60 min; 100% = no inhibitor; n.i. = residual activity ≥ 95%; read-out: Percentage residual activity of human cathepsin B
T2 construct: Human isolated cathepsin B (Calbiochem) was assayed spectrophotometrically; purchased Calbiochem
Description: as §1
(§3) Human isolated cathepsin B (Calbiochem) was assayed spectrophotometrically (Cary 50 Bio, Varian) at 405 nm and 37 °C. Assay buffer was 100 mM sodium phosphate buffer pH 6.0, 100 mM NaCl, 5 mM EDTA, 0.01% Brij 35. For activation, an enzyme stock solution was diluted with assay buffer containing 5 mM DTT and incubated for 30 min at 37 °C. The final concentration of the chromogenic substrate Z-Arg-Arg-pNA was 500 µM (0.45 × Km).
as §2

[4] = biological target: T3, Human isolated cathepsin L (Homo sapiens, UniProt P07711); assay: Cathepsin L assay (chromogenic substrate Z-Phe-Arg-pNA); assay type: biochemical; details: 50 µM inhibitor, 60 min; 100% = no inhibitor; n.i. = residual activity ≥ 95%; read-out: Percentage residual activity of human cathepsin L
T3 construct: Human isolated cathepsin L (Enzo Life Sciences) was assayed spectrophotometrically; purchased Enzo Life Sciences
Description: as §1
as §3, with “L (Enzo Life Sciences)” for “B (Calbiochem)”, “The assay” for “Assay”, “EDTA, and” for “EDTA,”, “Z-Phe-Arg-pNA” for “Z-Arg-Arg-pNA”, “100” for “500”, “(5.88” for “(0.45”
as §2

[5] = tested on: voltage-gated calcium channels; assay: Calcium channel blockade (FLIPR Calcium 6 indicator, SH-SY5Y cells); assay type: cell-based, human; details: compounds at 10 µM, KCl/CaCl2 stimulation, n.i. = no inhibition
Description: Calcium channel blockade. Evaluation of the calcium channel blockade of compounds 4a–l was performed using the FLIPR Calcium 6 indicator according to a previously established protocol. Briefly, human neuroblastoma cell line SH-SY5Y seeded out on 96-well plate were treated with fluorescent calcium indicator (FLIPR Calcium 6, Molecular Devices). Cells were incubated with indicator for 2 h at 37 °C, facilitating internalization of the indicator. Subsequently, cells were exposed to nimodipine (10 µM, used as reference inhibitor), DMSO (0.1%, used as vehicle control) or our compounds of interest (10 µM) for 10 min also at 37 °C. Following that, cell fluorescence was recorded using a microplate reader (λEx = 485 nm; λEm = 525 nm). Baseline fluorescence was recorded for 5 s. Afterwards, cells were stimulated by the addition of the solution of KCl and CaCl2 (90 and 5 mM, respectively) in order to induce the opening of voltage-gated calcium channels. An increase in fluorescence of calcium indicator after inducing calcium flux was recorded for another 30 s. Data were collected from three independent experiments, with eight technical replicates per experiment. Fluorescence intensity values were normalized to the baseline recorded before the induction of calcium flux. The percentage of inhibition was calculated as a reduction of normalized calcium flux in comparison with the DMSO vehicle control. Outliers were detected using the Grubbs test, and any outlying values were excluded from further analysis.
Calcium channel blockade. The Ca^2+ channel blocking capacity of compounds 4a–l and nimodipine, used as a standard at a concentration of 10 μM, was evaluated according to an established methodology.

[6] = biological target: T4, Human recombinant cathepsin S (Homo sapiens, UniProt P25774); assay: Cathepsin S assay (fluorogenic substrate Z-Phe-Arg-AMC); assay type: biochemical; details: 50 µM inhibitor, 60 min; 100% = no inhibitor; n.i. = residual activity ≥ 95%; read-out: Percentage residual activity of human cathepsin S
T4 construct: purchased Enzo Life Sciences
Description: as §1
Human recombinant cathepsin S (Enzo Life Sciences) was assayed fluorometrically (FLUOstar Optima plate reader, BMG Labtech) at 25 °C with an emission wavelength of 360 nm and an absorption wavelength of 460 nm. The assay buffer was 100 mM sodium phosphate buffer pH 6.0, 100 mM NaCl, 5 mM EDTA, 0.01% Brij 35. For activation, an enzyme stock solution was diluted with assay buffer containing 5 mM DTT and incubated for 60 min at 37 °C.
as §2

T4 sequence (P25774 115-331): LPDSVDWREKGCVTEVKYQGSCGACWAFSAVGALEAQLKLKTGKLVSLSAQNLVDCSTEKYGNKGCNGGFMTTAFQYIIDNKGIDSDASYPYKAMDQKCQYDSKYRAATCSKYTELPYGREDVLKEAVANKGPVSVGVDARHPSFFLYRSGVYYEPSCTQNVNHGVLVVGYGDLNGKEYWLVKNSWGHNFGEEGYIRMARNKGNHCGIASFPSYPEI
T3 sequence (P07711 114-333): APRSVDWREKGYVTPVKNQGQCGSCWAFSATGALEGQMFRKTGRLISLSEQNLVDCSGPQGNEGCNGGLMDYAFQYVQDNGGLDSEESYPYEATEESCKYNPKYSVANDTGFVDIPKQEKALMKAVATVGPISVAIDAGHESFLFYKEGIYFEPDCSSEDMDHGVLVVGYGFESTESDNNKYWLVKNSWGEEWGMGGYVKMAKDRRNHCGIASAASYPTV

EC50 (Nrf2-ARE) [µM]	remaining activity at 50 µM [2] [%]	remaining activity at 50 µM [3] [%]	remaining activity at 50 µM [4] [%]	remaining activity at 50 µM [6] [%]	SMILES	ORAC [1]	Calcium Channel Blockade (%) [5] [%]
69.4 ± 9.1	82	86	92	79	C#CCN(C)C(=O)C1=C(C)NC(C)=C(C(=O)N(C)CC#C)C1c1ccccc1OC [4k, 4-(2-Methoxyphenyl)-N2,N3,5,6-tetramethyl-N3,N5-bis(prop-2-yn-1-yl)-1,4-dihydropyridine-3,5-dicarboxamide]	n.i.	14
81.7 ± 11.6	81	86	88	79	C#CCN(C)C(=O)C1=C(C)NC(C)=C(C(=O)N(C)CC#C)C1c1cccc(OC)c1 [4l, 4-(3-Methoxyphenyl)-N2,N3,5,6-tetramethyl-N3,N5-bis(prop-2-yn-1-yl)-1,4-dihydropyridine-3,5-dicarboxamide]	0.96 ± 0.07 Trolox equivalents	15
